Common to all, as to assay type: biochemical
Experiment [1] has as its target T1, MMP-3 (recombinant truncated stromelysin) (Homo sapiens, UniProt P08254).
T1 construct: made in house; host or cells: E. coli
Description: Primary Thiopeptilide MMP-3 Inhibition Assay. To be noted: for IC50: x (n): average IC50 of n separate determinations.
Description: Reaction mixtures for inhibitor studies contained 1 mM Ac-Pro-Leu-Gly-S-Leu-Leu-Gly-o-ethyl thiopeptolide substrate dissolved in HEPES assay buffer pH 6.5, along with 0.5 mM 5,5'-dithio-bis-(nitrobenzoicacid), drug concentrations ranging from 0.5 nM to 5 μM and activated enzyme (10-100 ng) in a total volume of 130 μl. […] Enzyme mediated substrate hydrolysis was corrected for non-enzymatic hydrolysis of the substrate by the subtraction of values from control samples incubated in the absence of enzyme. Drug efficacy was reported as the percent inhibition of enzyme activity calculated as:
Enzyme: recombinant stromelysin expressed in E.coli and purified as described above. […] The protocols for the assay of compounds as stromelysin inhibitors was the same as that used for MMP-9 except that the assay buffer was 50 mM MES, pH 6.5 containing 150mM NaCl, 10 mM CaCl2, 0.005% Brij, and 1% DMSO.
All IC50 values are expressed as nM. […] When "x (n)" is shown, x is the erage IC50 value of n separate determinations.

Experiment [2] deals with T2, MMP-9 (Gelatinase-B, 92 kDa) (Homo sapiens, UniProt P14780).
T2 construct: from tissue; host or cells: human polymorphonuclear leukocytes from fresh whole blood (New York Blood Center), PMA-stimulated supernatant, purified
Description: Thiopeptilide MMP-9 Inhibition Assay. To be noted: for IC50: x (n): average IC50 of n separate determinations. The protocol:
MMP-9 was isolated modifying the previously described procedures of Hibbs et al (J. Biol. Chem., 260, 2493-2500, 1984) and Wilhelm et al (J. Biol. Chem., 264, 17213-17221, 1989). Briefly, polymorphonuclear leukocytes (PMN) preparations were isolated as described above from 3 or more units of freshly drawn whole blood obtained from the New York Blood Center (N.Y., N.Y.). Cells were resuspended in phosphate buffered saline (PBS) containing 100 ng/ml phorbol myristate acetate (PMA) in the presence of 50 mM di-isopropylfluorophospate (DFP), 1 μg/ml leupeptin and aprotinin, and 1 mg/ml catalase for 1 hr at 37° C. Supernatants were collected by centrifugation (300×g) and the samples were frozen at -70° C. All chromatographic methods were performed at 4° C. Thawed samples were concentrated 5-fold using an Amicon chamber equipped with a YM-10 membrane. The concentrate was pressure dialyzed against 0.02M Tris-HCl, 0.1M NaCl, 1 mM CaCl2, 1 μM ZnCl2, 0.001 % Brij-35, 0.02% sodium azide (NaN3), pH 7.5 and applied to DEAE ion exchange chromatography resin which was previously equilibrated with the same buffer at a flow rate of 0.4 ml/min. The column was extensively washed with the same buffer and gelatinase was eluted as 4 ml fractions from the column with 0.02M Tris-HCl, 0.5M NaCl, 1 mM CaCl2, 1 μM ZnCl2, 0.001% Brij-35, 0.02% NaN3, pH 7.5. Gelatinase containing fractions were observed by gelatin zymography (see below), loaded onto a gelatin agarose affinity resin and washed with the same buffer. Gelatinase activity was eluted at a flow rate of 1 ml/min from the column as 1 ml fractions with 0.02M Tris-HCl, 1M NaCl, 1 mM CaCl2, 1 μmM ZnCl2, 0.001% Brij-35, 0.02% NaN3, pH 7.5 containing 10% dimethyl sulfoxide (DMSO). The fractions containing gelatinase activity were pooled and dialyzed against 0.005M Tris-HCl, 5 mM NaCl, 0.5 mM CaCl2, 0.1 μM ZnCl2, 0.001% Brij-35, pH 7.4. The protein content associated with material was determined with a micro-BCA assay (Pierce, Rockford, Ill.), lyophilized and reconstituted to a desired working concentration (100 μg/ml).
Progelatinase (10 μg/ml) isolated from human PMNs (described above) was activated with 1 mM 4-aminophenylmercuric acetate (APMA) in 50 mM Tris-HCl, 200 mM NaCl, 5 mM CaCl2, 0.001% Brij-35, pH 7.6 at 37° C. for 16 hr. The activated enzyme was dialyzed against the above buffer to remove APMA. The thiopeptolide spectrophotometric ( Weingarten, H., Feder, J., Anal. Biochem., 147, 437-440, 1985) substrate hydrolysis assay was modified to a micro-assay format. Spectrophotometric analysis of MMP-9 activity required a 1000-fold dilution of activated MMP-9 (10 ng/ml, 0.14 nM) in assay buffer comprised of 50 mM 4-(2-hydroxyethyl)1-piperazine ethane sulfonic acid (HEPES), 0.15M NaCl, 10 mM CaCl2, 0.001% Brij-35, pH 6.5 between 100 and 1000-fold for enzyme assays. Reaction mixtures for inhibitor studies contained 1 mM Ac-Pro-Leu-Gly-S-Leu-Leu-Gly-o-ethyl thiopeptolide substrate dissolved in HEPES assay buffer pH 6.5, along with 0.5 mM 5,5'-dithio-bis-(nitrobenzoicacid), drug concentrations ranging from 0.5 nM to 5 μM and activated enzyme (10-100 ng) in a total volume of 130 μl. The hydrolysis of substrate was monitored at 405 nm using an automated plate reader (Molecular Devices, Menlo Park, Calif.). Enzyme mediated substrate hydrolysis was corrected for non-enzymatic hydrolysis of the substrate by the subtraction of values from control samples incubated in the absence of enzyme. Drug efficacy was reported as the percent inhibition of enzyme activity calculated as:
(Control Values-Treated Values)/Control Values×100
Two way analysis of variance was used to determine significance between individual test groups.
All IC50 values are expressed as nM. When "I=x %" is shown, x presents the % inhibition at 5 μM. When "x (n)" is shown, x is the erage IC50 value of n separate determinations.

Another experiment relates to MMP. Description: MMP inhibitory activity.

Structures are written as SMILES. Counter-ions that a name gives are not always drawn.

T1 sequence (P08254 100-274 limits assumed): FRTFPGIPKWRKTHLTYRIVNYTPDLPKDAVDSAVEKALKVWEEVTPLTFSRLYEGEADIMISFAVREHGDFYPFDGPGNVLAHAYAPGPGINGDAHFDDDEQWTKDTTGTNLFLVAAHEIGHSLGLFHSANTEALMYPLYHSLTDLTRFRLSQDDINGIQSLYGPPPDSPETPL
T2 sequence (P14780 107-707 limits assumed): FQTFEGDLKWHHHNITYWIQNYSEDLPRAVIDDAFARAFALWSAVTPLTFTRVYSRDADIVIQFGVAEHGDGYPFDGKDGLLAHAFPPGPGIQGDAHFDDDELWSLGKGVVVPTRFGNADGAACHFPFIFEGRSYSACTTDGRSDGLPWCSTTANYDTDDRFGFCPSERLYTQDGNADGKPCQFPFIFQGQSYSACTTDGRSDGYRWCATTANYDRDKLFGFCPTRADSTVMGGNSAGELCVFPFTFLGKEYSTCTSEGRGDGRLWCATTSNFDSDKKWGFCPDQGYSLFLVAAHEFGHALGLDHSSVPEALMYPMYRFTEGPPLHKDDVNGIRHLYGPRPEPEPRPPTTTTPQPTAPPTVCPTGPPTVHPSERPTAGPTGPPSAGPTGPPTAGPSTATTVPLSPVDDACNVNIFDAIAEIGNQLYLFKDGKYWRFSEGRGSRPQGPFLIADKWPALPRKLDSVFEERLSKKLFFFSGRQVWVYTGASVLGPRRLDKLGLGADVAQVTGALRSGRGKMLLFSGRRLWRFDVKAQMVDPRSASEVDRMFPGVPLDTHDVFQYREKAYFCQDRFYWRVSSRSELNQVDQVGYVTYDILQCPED

Usually IC50 stands for the midpoint of a concentration-inhibition curve. Turning to `CC(C)CC(CC(O)c1ccc(-c2ccc(Cl)cc2)cc1)C(=O)O` (stereo not drawn) [Example 27, [1,1'-Biphenyl]-4-butanoic acid, 4'-chloro-γ-hydroxy-α-(2-methylpropyl)-], the IC50 in experiment [1] is 5000 nM.
Turning to `O=C(O)[C@@H]1[C@@H](Cc2ccccc2)CC[C@H]1C(=O)c1ccc(-c2ccc(Cl)cc2)cc1` (relative stereo) [Example 227, Cyclopentanecarboxylic acid, 2-[(4'-chloro [1,1'-biphenyl]-4-yl)carbonyl]-5-(phenylmethyl)-, (1α,2β,5β)-], the concentration for half-maximal inhibition (IC50) in experiment [1] is 140 nM.
Turning to `CCOc1ccc(-c2ccc(C(=O)[C@@H]3CC[C@@H](Sc4ccccc4)[C@H]3C(=O)O)cc2)cc1` (relative stereo) [Example 225, Cyclopentanecarboxylic acid, 2-[(4'-ethoxy[1,1'-biphenyl]-4-yl)carbonyl]-5-(phenylthio)-, (1α,2β,5α)-], the half-maximal inhibitory concentration (IC50) in experiment [1] turned out to be 66 nM.
As a reminder, the inhibition is the share of the control response that was lost under treatment. On to `CCN(CC)CCC(CC(=O)c1ccc(-c2ccc(Cl)cc2)cc1)C(=O)O` (stereo not drawn) [Example 191, [1,1'-Biphenyl]-4-butanoic acid, 4'-chloro-α-[2-(diethylamino)ethyl]-γ-oxo-,hydrochloride], for which the inhibition at 5 µM in experiment [2] (at 5 μM, read-out: MMP-9 Thiopeptilide % inhibition (I)) is 31%.
Regarding `O=C(CC(CCCc1ccccc1)C(=O)O)c1ccc(-c2ccccc2)cc1` (stereo not drawn) [Example 91, [1,1'-Biphenyl]-4-butanoic acid, γ-oxo-α-(3-phenylpropyl)-], the “MMP inhibitory activity / potency in words” value with MMP is “low potency”. Further, inhibition in experiment [2] was half-maximal at 2800 nM (IC50).
With `COC(=O)c1ccccc1S[C@@H]1CC[C@H](C(=O)c2ccc(-c3ccc(Cl)cc3)cc2)[C@H]1C(=O)O` (relative stereo) [Example 219, Benzoic acid, 2-[[2-carboxy-3-[(4'-chloro[1,1'-biphenyl]-4-yl)carbonyl]cyclopentyl]thio]-, 1-methyl ester, (1α,2β,3α)-], the IC50 in experiment [1] was found to be 33 nM; in experiment [2], 108 nM.
Regarding `CCOc1ccc(-c2ccc(C(=O)[C@@H]3CC[C@H](Cc4ccccc4)[C@H]3C(=O)O)cc2)cc1` (relative stereo) [Example 226, Cyclopentanecarboxylic acid, 2-[(4'-ethoxy[1,1'-biphenyl]-4-yl)carbonyl]-5-(phenylmethyl)-, (1α,2β,5β)-], in experiment [1], the IC50 amounted to 98 nM.
As for `O=C(O)[C@@H]1CC[C@H]1C(=O)c1ccc(-c2ccc(Cl)cc2)cc1` (relative stereo) [Example 206, Cyclobutanecarboxylic acid, 2-[(4'-chloro[1,1'-biphenyl]-4-yl)carbonyl]-, trans-], in the experiment on MMP, the “MMP inhibitory activity / potency in words” value is recorded as “much more active”.
`O=C(O)[C@@H]1[C@@H](C(=O)c2ccc(-c3ccc(Cl)cc3)cc2)CC[C@H]1Sc1ccccc1` (single isomer, unassigned) [Example 212, Cyclopentanecarboxylic acid, 2-[(4'-chloro[,1'-biphenyl]-4-yl)carbonyl]-5-(phenylthio)-, [1R-(1α,2β,5β)]-]: in experiment [2], inhibition was half-maximal at 640 nM (IC50).
For the compound `O=C(C[C@@H](C[S+]([O-])c1ccccc1)C(=O)O)c1ccc(-c2ccc(Cl)cc2)cc1` (stereo partly drawn) [Example 126, [1,1'-Biphenyl]-4-butanoic acid, 4'-chloro-γ-oxo-α-[(phenylsulfmyl)methyl]-,stereoisomer], in experiment [1] (at 5 μM), the “MMP-3 Thiopeptilide % inhibition (I)” value was 17%.
As to `CC(C)CC(CC(O)c1ccc(-c2ccc(Cl)cc2)cc1)C(=O)O` (stereo not drawn) [Example 26, [1,1'-Biphenyl]-4-butanoic acid, 4'-chloro-γ-hydroxy-α-(2-methylpropyl)-], the 50% inhibitory concentration (IC50) in experiment [1] turned out to be 2600 nM; in experiment [2], 2400 nM.
Take `O=C(O)[C@@H]1[C@@H](Sc2ccc(Cl)cc2)CC[C@H]1C(=O)c1ccc(-c2ccc(Cl)cc2)cc1` (relative stereo) [Example 222, Cyclopentanecarboxylic acid, 2-[(4'-chloro [1,1'-biphenyl]-4-yl)carbonyl]-5-[(4-chlorophenyl)thio]-, (1α,2β,5β)-]: the results for the IC50 in experiment [1] and in experiment [2] were 80 nM and 32 nM, respectively.
`CCOc1ccc(-c2ccc(C(=O)[C@@H]3CC[C@H](Sc4ccccc4)[C@H]3C(=O)O)cc2)cc1` (relative stereo) [Example 224, Cyclopentanecarboxylic acid, 2-[(4'-ethoxy[1,1'-biphenyl]-4-yl)carbonyl]-5-(phenylthio)-, (1α,2β,5β)-]: in experiment [1], the 50% inhibitory concentration (IC50) was 36 nM.
As to `O=C(CC(CCN1C(=O)c2ccccc2C1=O)C(=O)O)c1ccc(-c2ccc(Cl)cc2)cc1` (stereo not drawn) [Example 194, 2H-Isoindole-2-butanoic acid, α-[2-(4'-chloro[1,1'-biphenyl]-4-yl)-2-oxoethyl]-1,3-dihydro-1,3-dioxo-], the IC50 worked out at 38 nM in experiment [1] and 1.8 nM in experiment [2].
Regarding `CC(C)CC(CC(=O)c1ccc(-c2ccccc2)cc1)C(=O)O` (stereo not drawn) [Example 13, [1,1'-Biphenyl]-4-butanoic acid, α-(2-methylpropyl)-γ-oxo-], the “MMP inhibitory activity / potency in words” value in the experiment with MMP is “low potency”.
For the compound `CC(=O)SC(CC(=O)c1ccc(Oc2ccc(Cl)cc2)cc1)C(=O)O` (stereo not drawn) [Example 183, Benzenebutanoic acid, α-(acetylthio)-4-(4-chlorophenoxy)-γ-oxo-, reference compound], the “MMP inhibitory activity / potency in words” value in the experiment with MMP is given as “very low potency”.
As to `Cc1cc(C)cc(SCC(CC(=O)c2ccc(-c3ccc(Cl)cc3)cc2)C(=O)O)c1` (stereo not drawn) [Example 165, [1,1'-Biphenyl]-4-butanoic acid, 4'-chloro-α-[[(3,5-dimethylphenyl)thio]methyl]-γ-oxo-], the IC50 in experiment [1] was found to be 1600 nM.
As for `O=C(O)[C@@H]1[C@H](Sc2ccc(Cl)cc2)CC[C@H]1C(=O)c1ccc(-c2ccc(Cl)cc2)cc1` (relative stereo) [Example 223, Cyclopentanecarboxylic acid, 2-[(4'-chloro[1,1'-biphenyl]-4-yl)carbonyl]-5-[(4-chlorophenyl)thio]-, (1α,2β,5α)-], the figures for the IC50 in experiment [1] and in experiment [2] were 340 nM and 700 nM, respectively.
Regarding `O=C(CC(C(=O)O)N1CCSCC1)c1ccc(-c2ccc(Cl)cc2)cc1` (stereo not drawn) [Example 184, 4-Thiomorpholineacetic acid, α-[2-(4'-chloro[1,1'-biphenyl]-4-yl)-2-oxoethyl]-, hydrochloride], the inhibition at 5 µM in experiment [1] (at 5 μM, read-out: MMP-3 Thiopeptilide % inhibition (I)) worked out at 19%.
Compound `O=C(CC(Cc1ccccc1)C(=O)O)c1ccc(-c2ccc(Cl)cc2)cc1` (stereo not drawn) [Example 105, [1,1'-Biphenyl]-4-butanoic acid, 4'-chloro-γ-oxo-α-(phenylmethyl)-] yielded a concentration for half-maximal inhibition (IC50) in experiment [2] of 900 nM.

The values above are taken from patent publication US5886022A, “Substituted cycloalkanecarboxylic acid derivatives as matrix metalloprotease inhibitors” (priority 1997, dated 1999).
